Active and inactive are the calls of the source. How the calls were made is not given here. Some results are limits rather than exact numbers.

The subject of this assay is 697B B-cell line, NF-kB luciferase reporter luminescence. Nature of the assay: NF-kB reporter inhibition in B cells, dose response, selectivity assay for T-cell antigen receptor NF-kB inhibitors, 697B cells, luminescence (AID 489033).
As a reminder, the IC50 is the point on the concentration scale where inhibition reaches its midpoint. With `COc1cc(-c2noc(C)c2C#Cc2ccsc2)cc(OC)c1OC`, the IC50 is 77.7 µM (inactive).

For the molecule `COc1cc(C2C(C#N)=C(N)Oc3cc(N(C)C)ccc32)cc2c1OCO2` (configuration not stated), the IC50 was > 80 µM (inactive).

For `CCC1CCCCN1C(=O)c1cc(COc2ccc3ncccc3c2)on1` (configuration not stated), the IC50 is > 80 µM (inactive).

As to `CCOC(=O)c1ccc(Nc2nc(N)c3cc(OC)c(OC)cc3n2)cc1`, the IC50 was > 80 µM (inactive).

For the molecule `COc1ccc(NC(=O)/C(Cl)=C(/Cl)S(=O)Cc2ccccc2Cl)cn1` (configuration not stated), the IC50 was 1.27 µM.

For the molecule `Cc1ccc2c(c1)sc(-c1ccc(N(C)C)cc1)[n+]2C`, the IC50 was 33.6 µM (inactive).

In the case of `CCCCCc1ccc(OCCCC[n+]2ccc(C)cc2)c(CCCCC)c1`, the IC50 is 4.21 µM.

On to `CCc1ccc(S(=O)(=O)/N=C2\C=C(Nc3ccc(O)cc3)C(=O)c3ccccc32)cc1`, for which the IC50 was 5.19 µM.

Take `CCN(CC)c1ccc(/C=C/c2ccc3ccc(OC)cc3[n+]2CC)cc1`: the half-inhibitory concentration (IC50) was 2.84 µM.

With `C#Cc1ccc([C@@H]2C=C(C(=O)N3CCN(Cc4ccccc4)CC3)O[C@H](OCCCCO)C2)cc1`, the IC50 was > 80 µM (inactive).

On to `N=c1ccn(CC(=O)c2ccc(-c3ccccc3)cc2)cc1`, for which the IC50 was 19.2 µM.

Turning to `COc1ccc(C(=O)Nc2ccc3[nH]c(-c4cccc(OC)c4)cc(=O)c3c2)cc1`, the IC50 was > 80 µM (inactive).

On to `COc1cccc(CN(C)C(=O)c2cc(COc3ccc4ncccc4c3)on2)c1`, for which the IC50 is > 80 µM (inactive).

Consider `Cc1ccc(NC(=O)C2=C(c3ccccc3)S(=O)(=O)CCS2(=O)=O)cc1`, for which the IC50 is 0.39 µM.

Turning to `O=C(O)c1ccc(-c2ccc(-c3ccccc3)cc2)s1`, the IC50 is 2.46 µM.

As to `COc1ccc(/C=N/NC(=O)COc2ccccc2-c2ccccc2)cc1`, the IC50 is 76.2 µM (inactive).

With `Cc1ccc(-c2nc(-c3ccccn3)no2)cc1`, the IC50 was 3.78 µM.

With `CCCCN=C[C@]12CCC(O)CC1(O)CCC1[C@@H]2CC[C@]2(C)[C@H](C3C=CC(=O)O3)CCC12O` (some centres not stated), the IC50 was 2.49 µM.

Take `Cc1ccc(O)c(NC(=O)CCC2CCCCC2)c1`: the IC50 is > 80 µM (inactive).

For `Cc1ccc(C)c(N=Nc2ccc(O)c3ncccc23)c1`, the 50% inhibitory concentration (IC50) is 4.44 µM.

For the molecule `O=C(Nc1ccn(Cc2ccccc2F)n1)c1ccc(COc2ccc(Br)cc2)cc1`, the IC50 is > 80 µM (inactive).

As for `CCOc1ccccc1C1CC(=O)Nc2cc3c(cc21)OCCO3` (configuration not stated), the IC50 was > 80 µM (inactive).

In the case of `COc1ccc(NS(=O)(=O)c2ccc(-c3cnc(C4CC4)o3)cc2)cc1OC`, the IC50 was > 80 µM (inactive).

As to `CCOc1ccccc1NC(=O)Cn1nnc(C(=O)NCc2ccco2)c1N`, the IC50 is > 80 µM (inactive).

As for `CCCCN1/C(=C/c2ccc3ccccc3[n+]2CC)Sc2ccccc21`, the IC50 is 8.19 µM.

With `COc1ccc(Cn2c(SCc3ccc(C)cc3)nc3cc(OC)c(OC)cc3c2=N)cc1Cl`, the IC50 is 4.8 µM.

Turning to `Cc1cccc(N2CCN(C(=O)c3ccc(CS(=O)(=O)c4ccccc4C)o3)CC2C)c1` (configuration not stated), the IC50 is 22.3 µM (inactive).

Regarding `COc1ccc(C)c(Cn2c(-c3nonc3N)nc3ccccc32)c1`, the IC50 is > 80 µM (inactive).

Turning to `Nc1nc(-c2ccccc2)cc(N2CCCCC2)n1`, the IC50 is > 80 µM (inactive).

With `COc1ccccc1NC(=O)c1cnc(Nc2ccccc2OC)c2ccccc12`, the IC50 is > 80 µM (inactive).

In the case of `CCC(=O)N1c2ccc(S(=O)(=O)N3CCN(c4ccc([N+](=O)[O-])cc4)CC3)cc2CC1C` (configuration not stated), the IC50 is > 80 µM (inactive).

Take `CCO[C@H]1OC(C(=O)NCc2nc3ccccc3[nH]2)=C[C@@H](C2CC2)[C@@H]1CCCO`: the IC50 was > 80 µM (inactive).

Take `Oc1ccc(Nc2nc3ccccc3nc2Nc2ccc(O)cc2)cc1`: the IC50 is 3.73 µM.

With `Cc1ccc(S(=O)(=O)/N=C2\C=C(Nc3ccc(O)cc3)C(=O)c3ccccc32)cc1`, the IC50 was 2.04 µM.

As to `COc1ccc(OC)c2c1C(=O)C(Cl)=C(Cl)C2=O`, the IC50 was 4.03 µM.

Regarding `C/C=C(\C)C(=O)N[C@@H](c1ccccc1)[C@@H](O)C(=O)O[C@H]1C[C@@]2(O)[C@@H](OC(=O)c3ccccc3)C3[C@](C)(C(=O)[C@H](OC(C)=O)C(=C1C)C2(C)C)[C@@H](O)C[C@H]1OC[C@@]31OC(C)=O` (some centres not stated), the IC50 is > 80 µM (inactive).

As for `COc1cc(NS(C)(=O)=O)ccc1Nc1c2ccccc2nc2ccccc12`, the IC50 is 15.8 µM.

In the case of `Oc1ccccc1N=Nc1nc(-c2ccccc2)c(-c2ccccc2)[nH]1`, the IC50 is 4.55 µM.

Take `CC1CCCN(c2ncnc3c2cnn3-c2ccc(Cl)cc2)C1` (configuration not stated): the IC50 is below 0.16 µM.

Take `NC(=O)CC(NC(=O)c1ccc(Br)cc1)c1ccc(N2CCCCCC2)c([N+](=O)[O-])c1` (configuration not stated): the IC50 was 47.5 µM (inactive).

For the molecule `COC(=O)Nc1ccc(S(=O)(=O)N2CCCc3ccccc32)cc1`, the IC50 was > 80 µM (inactive).

As for `COC(=O)c1cn(NC(=O)c2cc([N+](=O)[O-])ccc2F)c(=O)c2ccccc12`, the IC50 was 2.43 µM.

Consider `CC1(C)CC(N2CCN(C(c3ccccc3)c3ccccc3)CC2)=CC(=[N+]2CCCCC2)C1`, for which the IC50 was 1.64 µM.

`CCOc1ccc(N(CC(=O)Nc2ccccc2C)S(=O)(=O)c2c(C)noc2C)cc1`: the IC50 was > 80 µM (inactive).

For the molecule `CCCC(=O)Nc1nc2ccc(S(=O)(=O)N3CCCCC3)cc2s1`, the IC50 was > 80 µM (inactive).

`Cc1ccc(N2C(=O)c3cccc4c(N)ccc(c34)C2=O)c2cccnc12`: the IC50 is > 80 µM (inactive).

As to `CCOc1ccc(-c2[nH]ncc2-c2ccc(OC)c(OC)c2)c(O)c1`, the IC50 was > 80 µM (inactive).

Regarding `CC(C)c1oc(=O)cc2c1[C@@H](O)[C@H]1OC(=O)[C@@]3(C)CC[C@@H](O)[C@@]2(C)C13` (some centres not stated), the IC50 was 14 µM.

For `COc1ccc(S(=O)(=O)N2N=C(C)Oc3ccccc3C2=O)cc1`, the IC50 was > 80 µM (inactive).

`O=[N+]([O-])c1nn(-c2ccc3c(c2)OCCO3)n(O)c1=Nc1ccccc1`: the IC50 was below 0.16 µM.

`O=S1(=O)C=C(Sc2nc3ccccc3s2)c2ccccc21`: the IC50 is 0.32 µM.

On to `COc1cccc(N/C(N)=N/c2nc(CSc3ccccn3)cc(=O)[nH]2)c1`, for which the IC50 is > 80 µM (inactive).

Turning to `CN(C)S(=O)(=O)c1ccc(Nc2nc(C3CC3)nc3c2nnn3Cc2ccccc2Cl)cc1`, the IC50 was > 80 µM (inactive).

On to `CC1C/C(=C/c2ccncc2)C(=O)/C(=C/c2ccncc2)C1` (configuration not stated), for which the IC50 is 8.39 µM.

For `COc1ccc(NC(=O)C(=O)NCC2CCCN2S(=O)(=O)c2ccc(C)cc2)cc1` (configuration not stated), the IC50 was > 80 µM (inactive).

As for `C[C@@H]1C=CC(=O)O[C@@H]1c1ccc(Cl)cc1`, the IC50 was 5.11 µM.

Turning to `CCCCCCCCCCCCCCCC[n+]1cccc(C(=O)N(CC)CC)c1`, the IC50 is 3.3 µM.

For `CN[C@H]1CCc2cc(OC)c(OC)c(OC)c2-c2ccc(OC)c(=O)cc21`, the IC50 is > 80 µM (inactive).

Consider `Cc1ccc(C)c(CSc2nc3[nH]ncc3c(=O)[nH]2)c1`, for which the IC50 was 15.7 µM.

Regarding `CCCCS(=O)(=O)/C=C\C=C/S(=O)(=O)CCCC`, the IC50 is 3.51 µM.

With `COC(=O)[C@]12OC[C@]34C([C@@H](O)[C@@H]1O)[C@]1(C)CC(=O)C(O)=C(C)[C@@H]1C[C@H]3OC(=O)[C@H](O)[C@@H]24` (some centres not stated), the IC50 is 0.23 µM.

`CCSc1nc2ccccc2n1C(=O)/C=C\c1ccc(OC)c(OC)c1`: the IC50 is 4.67 µM.

For the molecule `COc1ccc(C(=O)c2ccc(N(C)C)cc2)c(OC)c1`, the IC50 was > 80 µM (inactive).

Turning to `CCc1ccc(/C=N/NC(=O)c2cc(-c3ccncc3)nc3ccccc23)s1`, the IC50 was 4.09 µM.

For the molecule `CCOc1ccc2c(c1)OC(c1ccc(C)cc1)(C(F)(F)F)NC2=O` (configuration not stated), the IC50 was > 80 µM (inactive).

As for `Cc1ccc(S(=O)(=O)Nc2ccccc2-c2ccccc2)cc1`, the IC50 is > 80 µM (inactive).

With `CCCCc1ccc(NC(=O)c2ccc(N(C)S(C)(=O)=O)cc2)cc1`, the IC50 is > 80 µM (inactive).

Take `Cc1[nH]n(-c2ccccc2)c(=O)c1/C=N/Nc1nncc(-c2ccccc2)n1`: the IC50 is > 80 µM (inactive).

Regarding `CC(=O)c1ccc(N2CCN(S(=O)(=O)c3ccc4c(c3)CC(C)N4C(=O)C3CC3)CC2)cc1` (configuration not stated), the IC50 was 0.72 µM.

For `COC(=O)c1[nH]c2ccc(F)cc2c1NS(=O)(=O)c1ccc(OC)cc1`, the IC50 is > 80 µM (inactive).

Take `Cc1cc(=O)oc2cc(OCC3CC(c4ccccc4Cl)=NO3)ccc12` (configuration not stated): the IC50 was > 80 µM (inactive).

`CSC1=NC(C(Cl)(Cl)Cl)N=C(c2ccc(C)cc2)N1` (configuration not stated): the IC50 is > 80 µM (inactive).

`C=CCSc1nc2ccccc2n1C(=O)/C=C/c1cc(OC)c(OC)c(OC)c1`: the IC50 was > 80 µM (inactive).

With `O=C(N[C@@H](Cc1ccccc1)C(=O)CCl)OCc1ccccc1`, the IC50 is 5.69 µM.

Consider `CCCCCCCCCCn1ccc(=N)cc1`, for which the IC50 is 11.7 µM.

Turning to `CC(C)(C)OC(=O)NCCCCCc1cn(CC(=O)NCCCCCCCCCCC(=O)N2CCN(C(=O)OC(C)(C)C)CC2)nn1`, the IC50 was > 80 µM (inactive).

For the molecule `C/C=C/COC(=O)c1[nH]c2c(c1C)C(=O)CC(c1ccco1)C2` (configuration not stated), the IC50 is > 80 µM (inactive).

In the case of `CCOC(=O)c1[nH]c(C)c(C(=O)OCC(=O)NC(C)c2ccc(F)cc2)c1C` (configuration not stated), the IC50 was > 80 µM (inactive).

For the molecule `CCOC(=O)C(C)Oc1cccc2c(=O)n(CC(=O)NCc3ccco3)ccc12` (configuration not stated), the IC50 is > 80 µM (inactive).

Regarding `COc1ccc(/C=C2/C(=O)OCc3cc(OC)c(OC)cc32)cc1`, the IC50 is > 80 µM (inactive).

As for `O=C(c1cc(-c2ccncc2)nc2c(Cl)cccc12)N1CCN(c2ccccc2F)CC1`, the IC50 was > 80 µM (inactive).

Consider `Cn1nc(-c2ccccn2)nc2c(=O)n(C)c(=O)nc1-2`, for which the IC50 was 4.12 µM.

On to `COC(=O)c1[nH]c2ccc(Br)cc2c1NC(=O)CN1CCN(C2CCCCC2)CC1`, for which the IC50 is 8.88 µM.

On to `COC(=O)c1ccccc1NC(=O)Cn1c(-c2nonc2N)nc2ccccc21`, for which the IC50 was > 80 µM (inactive).

With `CCCCCCCCC[n+]1cccc2c3ccccc3ccc21`, the IC50 is 1.98 µM.

As for `COc1ccc(OC)c(-c2nnc3n2N=C(c2ccc(OC)c(OC)c2)CS3)c1`, the IC50 was 55.2 µM (inactive).

For `CCOC(=O)c1ccccc1NS(=O)(=O)c1ccc(OCC)cc1`, the IC50 is > 80 µM (inactive).

These data come from PubChem BioAssay AID489033 (Sanford-Burnham Center for Chemical Genomics, 2010).
